The results in this text go back to patent US20250194599A1, “PESTICIDE FORMULATIONS” (FMC CORPORATION, priority 2022, published 2025).

Holding throughout (type): in vivo
In test [1] the test system is Cydia pomonella. Description: Field trial Example 1: fruit damage counts, 1000 fruit per plot, apple orchards. To be noted: Trial 4 (highest codling moth infestation), apple orchard, Argentina; programs of Table 1; letters = significantly different groups (Chi-square). As for the experimental part:
(§1) A field trial was conducted in Argentina to determine the effect of blending codling moth pheromone, (E,E)-8,10-dodecadien-1-ol, with chlorantraniliprole for control of coding moth population in apple orchards. The first flight of codling moth was targeted, at which time standard grower treatment pheromone dispensers had been placed in the respective fields. Applications of the chlorantraniliprole or chlorantraniliprole+pheromone were timed when eggs were expected to hatch.
(§2) Treatment programs comprising nine tracts of land across three farms were performed (see FIGS. 1A-C). SC=suspension concentrate; VP=vapor releasing product; WG=water-dispersible granules.
(§3) In brief, one treatment program was performed using an application of pheromone alone at 90 DD followed by applications of chlorantraniliprole plus pheromone at 250 DD and 250DD+21 days, respectively. A separate treatment was performed by applying chlorantraniliprole alone at 250 DD and 250DD+21 days. […]
(§4) Treatment effects were determined by conducting fruit damage counts prior to second generation flights by evaluating 1000 fruit in each plot for codling moth damage. […] The bands were removed during the second week of January, taken to the lab and counted.

Test [2] concerns Cydia pomonella. Description: Field trial Example 1: pupae counts in corrugated cardboard tree bands on 100 trees. To be noted: Trial 4 (highest infestation), programs of Table 1. As for the experimental part:
as §1, §2, §3, §4

For test [3], the system named is Cydia pomonella. Description: Field trial Example 2: number of damaged fruit across treatment groups, apple. To be noted: Example 2, foliar application, treatments of Table 4, FIGS. 4-5. Here is the method: (§5) A field trial was conducted in Argentina to evaluate the efficacy of chlorantraniliprole in combination with a kairomone, ethyl (2E,4Z)-2,4-decadienoate, to improve Cydia pomonella control in foliar application of apple (Malus domestica) compared to the efficacy of chlorantraniliprole alone and kairomone alone. SC=suspension concentrate; CS=capsule suspension
(§6) Efficacy of the trial was evaluated by (1) comparing the number of damaged fruit across the treatment groups; and (2) comparing the larva captured per hectare that were captured from corrugated cardboard traps settled in 100 trees. As shown in FIGS. 4-5, there was a significant difference in damaged fruits treatments that included chlorantraniliprole+kairomone compared to fruits treated with only chlorantraniliprole.

Test [4] deals with Cydia pomonella. The test is described as follows: Field trial Example 2: larva per hectare captured from corrugated cardboard traps in 100 trees. The following applies: treatments of Table 4, FIG. 6. As for the experimental part:
as §5, §6

For `CNC(=O)c1cc(Cl)cc(C)c1NC(=O)c1cc(Br)nn1-c1ncccc1Cl` [Chlorantraniliprole Alone, 3-bromo-N-(4-chloro-2-methyl-6-(methylcarbamoyl)phenyl)-1-(3-chloropyridin-2-yl)-1H-pyrazole-5-carboxamide], in the test on Cydia pomonella [1], the “# Damaged Fruit/ 1000 fruit” value is 39c. Moreover, the “# of Pupae Found” value in the test with Cydia pomonella [2] is 1782.
Consider `CCCCC/C=C\C=C\C(=O)OCC` [Kairomone, ethyl (2E,4Z)-2,4-decadienoate], for which the “damaged fruits out of 1000 fruits per treatment” value in the test on Cydia pomonella [3] is on record as “number of damaged fruits significantly higher compared to all other treatments”. For the same compound, in the test on Cydia pomonella [4], the “larva per hectare captured in corrugated cardboard traps” value is recorded as “larva per hectare significantly higher compared to all other treatments”.
